Measured values from patent publication US9156845B2, “4-(substituted amino)-7H-pyrrolo[2,3-d] pyrimidines as LRRK2 inhibitors” (Pfizer Inc., priority 2012, dated 2015).

Columns and labels:
Experiment in all cases: ActivX kinase probe assay (human PBMC)
Assay type in all cases: binding
RSK2 domain2 = RSK2 domain2 (Homo sapiens (Human), UniProt P51812); conditions: RSK2 domain2, read-out: percent inhibition
LRRK2 = LRRK2 (Homo sapiens (Human), UniProt Q5S007); conditions: read-out: percent inhibition
NuaK2 = NuaK2 (Homo sapiens (Human), UniProt Q9H093); conditions: NuaK2, read-out: percent inhibition
RSK2 domain1 = RSK2 domain1 (Homo sapiens (Human), UniProt P51812); conditions: RSK2 domain1, read-out: percent inhibition
MSK1 domain1 = MSK1 domain1 (Homo sapiens (Human), UniProt O75582); conditions: MSK1 domain1, read-out: percent inhibition
Chain of MSK1 domain1 (O75582 whole entry, the tested form may be a part): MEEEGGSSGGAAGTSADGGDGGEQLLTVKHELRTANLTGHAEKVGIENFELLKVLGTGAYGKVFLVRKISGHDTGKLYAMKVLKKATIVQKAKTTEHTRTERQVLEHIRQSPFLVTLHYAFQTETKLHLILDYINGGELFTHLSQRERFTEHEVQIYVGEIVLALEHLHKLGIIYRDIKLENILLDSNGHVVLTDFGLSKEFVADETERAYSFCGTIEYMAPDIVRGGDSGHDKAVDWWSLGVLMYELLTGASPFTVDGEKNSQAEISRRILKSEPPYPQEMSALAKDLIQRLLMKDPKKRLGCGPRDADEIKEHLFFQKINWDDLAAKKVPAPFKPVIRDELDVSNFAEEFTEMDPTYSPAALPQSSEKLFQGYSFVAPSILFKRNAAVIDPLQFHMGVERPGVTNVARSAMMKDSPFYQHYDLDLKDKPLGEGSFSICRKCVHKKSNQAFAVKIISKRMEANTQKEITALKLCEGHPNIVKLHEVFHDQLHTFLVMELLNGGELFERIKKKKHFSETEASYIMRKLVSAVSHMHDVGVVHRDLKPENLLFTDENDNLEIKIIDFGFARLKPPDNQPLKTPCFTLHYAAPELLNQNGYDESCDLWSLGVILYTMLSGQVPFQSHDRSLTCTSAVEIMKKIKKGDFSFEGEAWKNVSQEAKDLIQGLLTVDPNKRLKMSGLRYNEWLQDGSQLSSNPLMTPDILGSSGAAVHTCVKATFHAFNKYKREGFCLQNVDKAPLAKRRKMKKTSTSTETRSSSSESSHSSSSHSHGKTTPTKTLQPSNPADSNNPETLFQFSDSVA

PI4KB = PI4KB (Homo sapiens (Human), UniProt Q9UBF8); conditions: PI4KB, read-out: percent inhibition
ZC2/TNIK = ZC2/TNIK (Homo sapiens (Human), UniProt Q9UKE5); conditions: ZC2/TNIK, read-out: percent inhibition
FAK = FAK (Homo sapiens (Human), UniProt Q05397); conditions: FAK, read-out: percent inhibition
MAP2K4 = MAP2K4 (Homo sapiens (Human), UniProt P45985); conditions: MAP2K4, read-out: percent inhibition
p70S6Kb = p70S6Kb (Homo sapiens (Human), UniProt Q9UBS0); conditions: p70S6Kb, read-out: percent inhibition
CHK2 = CHK2 (Homo sapiens (Human), UniProt O96017); conditions: CHK2, read-out: percent inhibition
FRAP = FRAP (Homo sapiens (Human), UniProt P42345); conditions: FRAP, read-out: percent inhibition
LATS1 = LATS1 (Homo sapiens (Human), UniProt O95835); conditions: LATS1, read-out: percent inhibition
DNAPK = DNAPK (Homo sapiens (Human), UniProt P78527); conditions: DNAPK, read-out: percent inhibition
GCK = GCK (Homo sapiens (Human), UniProt Q12851); conditions: GCK, read-out: percent inhibition
MAP3K3 = MAP3K3 (Homo sapiens (Human), UniProt Q99759); conditions: MAP3K3, read-out: percent inhibition
FES = FES (Homo sapiens (Human), UniProt P07332); conditions: FES, read-out: percent inhibition
GCN2 = GCN2 (Homo sapiens (Human), UniProt Q9P2K8); conditions: GCN2, read-out: percent inhibition
Chain of GCN2 (Q9P2K8 whole entry): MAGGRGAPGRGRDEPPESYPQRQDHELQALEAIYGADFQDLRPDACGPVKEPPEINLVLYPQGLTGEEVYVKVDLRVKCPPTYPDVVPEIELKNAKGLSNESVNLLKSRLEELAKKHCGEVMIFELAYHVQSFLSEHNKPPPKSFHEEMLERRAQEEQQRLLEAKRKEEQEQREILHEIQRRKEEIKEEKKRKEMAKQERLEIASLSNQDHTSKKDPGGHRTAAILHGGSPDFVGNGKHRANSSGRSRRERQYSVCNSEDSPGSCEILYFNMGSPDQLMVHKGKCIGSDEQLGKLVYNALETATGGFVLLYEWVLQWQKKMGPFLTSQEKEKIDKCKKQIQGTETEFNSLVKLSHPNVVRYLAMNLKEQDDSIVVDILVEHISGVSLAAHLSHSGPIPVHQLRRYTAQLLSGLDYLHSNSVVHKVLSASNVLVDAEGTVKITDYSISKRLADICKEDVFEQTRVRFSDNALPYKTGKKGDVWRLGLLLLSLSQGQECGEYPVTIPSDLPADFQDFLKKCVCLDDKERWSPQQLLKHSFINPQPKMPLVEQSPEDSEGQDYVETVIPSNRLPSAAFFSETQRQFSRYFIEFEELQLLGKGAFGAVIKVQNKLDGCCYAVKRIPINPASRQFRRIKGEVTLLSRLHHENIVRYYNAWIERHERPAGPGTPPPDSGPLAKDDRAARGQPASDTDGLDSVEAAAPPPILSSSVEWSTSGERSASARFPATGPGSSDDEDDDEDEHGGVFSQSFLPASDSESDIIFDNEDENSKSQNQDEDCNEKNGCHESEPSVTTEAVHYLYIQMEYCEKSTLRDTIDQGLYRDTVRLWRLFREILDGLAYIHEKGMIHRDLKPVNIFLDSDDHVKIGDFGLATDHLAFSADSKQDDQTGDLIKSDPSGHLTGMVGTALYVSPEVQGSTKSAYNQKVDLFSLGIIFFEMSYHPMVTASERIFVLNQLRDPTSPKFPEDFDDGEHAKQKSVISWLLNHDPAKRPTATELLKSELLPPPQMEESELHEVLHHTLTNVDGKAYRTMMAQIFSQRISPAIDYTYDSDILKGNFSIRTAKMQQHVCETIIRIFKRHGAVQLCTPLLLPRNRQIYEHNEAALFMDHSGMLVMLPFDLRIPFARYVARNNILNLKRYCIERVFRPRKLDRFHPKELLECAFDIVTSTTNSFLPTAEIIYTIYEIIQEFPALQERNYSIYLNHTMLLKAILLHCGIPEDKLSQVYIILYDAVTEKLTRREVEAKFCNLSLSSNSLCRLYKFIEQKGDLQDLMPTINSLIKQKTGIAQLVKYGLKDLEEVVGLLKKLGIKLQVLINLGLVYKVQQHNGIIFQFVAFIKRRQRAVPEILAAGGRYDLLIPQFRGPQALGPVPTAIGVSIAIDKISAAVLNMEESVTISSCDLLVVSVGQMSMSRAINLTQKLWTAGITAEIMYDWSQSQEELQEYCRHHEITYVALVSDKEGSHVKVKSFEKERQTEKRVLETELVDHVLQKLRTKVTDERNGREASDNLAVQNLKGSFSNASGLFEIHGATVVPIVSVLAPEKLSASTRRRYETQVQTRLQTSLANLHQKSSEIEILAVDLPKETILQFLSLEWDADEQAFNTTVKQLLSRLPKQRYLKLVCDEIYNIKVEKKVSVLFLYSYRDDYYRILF

CaMK2d = CaMK2d (Homo sapiens (Human), UniProt Q13557); conditions: CaMK2d, read-out: percent inhibition
Chain of CaMK2d (Q13557 whole entry): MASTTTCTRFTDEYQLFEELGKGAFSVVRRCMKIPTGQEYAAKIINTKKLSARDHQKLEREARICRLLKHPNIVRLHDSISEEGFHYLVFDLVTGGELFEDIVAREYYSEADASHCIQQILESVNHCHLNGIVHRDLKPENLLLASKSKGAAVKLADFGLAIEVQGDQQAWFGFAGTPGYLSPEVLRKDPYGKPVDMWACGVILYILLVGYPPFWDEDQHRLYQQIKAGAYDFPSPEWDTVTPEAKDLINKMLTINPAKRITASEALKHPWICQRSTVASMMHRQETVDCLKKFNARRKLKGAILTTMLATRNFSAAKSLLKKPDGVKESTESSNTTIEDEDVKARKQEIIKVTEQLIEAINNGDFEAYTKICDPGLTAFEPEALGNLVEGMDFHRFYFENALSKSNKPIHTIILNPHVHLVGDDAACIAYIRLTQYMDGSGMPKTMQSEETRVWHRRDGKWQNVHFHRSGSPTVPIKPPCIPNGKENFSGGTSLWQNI

FYN, SRC, YES = tested on: FYN, SRC, YES
smMLCK = smMLCK (Homo sapiens (Human), UniProt Q15746); conditions: smMLCK, read-out: percent inhibition
eEF2K = eEF2K (Homo sapiens (Human), UniProt O00418); conditions: eEF2K, read-out: percent inhibition
p38a = p38a (Homo sapiens (Human), UniProt Q16539); conditions: p38a, read-out: percent inhibition
Chain of p38a (Q16539 whole entry): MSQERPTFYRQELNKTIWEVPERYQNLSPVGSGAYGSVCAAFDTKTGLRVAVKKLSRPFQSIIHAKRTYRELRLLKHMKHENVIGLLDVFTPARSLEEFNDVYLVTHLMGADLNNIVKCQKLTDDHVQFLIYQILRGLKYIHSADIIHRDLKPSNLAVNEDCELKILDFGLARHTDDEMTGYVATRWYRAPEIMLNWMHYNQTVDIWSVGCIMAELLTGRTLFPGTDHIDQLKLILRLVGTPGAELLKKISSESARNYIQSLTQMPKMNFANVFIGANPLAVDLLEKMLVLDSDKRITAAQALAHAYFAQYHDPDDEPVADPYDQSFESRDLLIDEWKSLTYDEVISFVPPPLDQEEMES

MST3 = MST3 (Homo sapiens (Human), UniProt Q9Y6E0); conditions: MST3, read-out: percent inhibition
TAO2 = TAO2 (Homo sapiens (Human), UniProt Q9UL54); conditions: TAO2, read-out: percent inhibition
Chain of TAO2 (Q9UL54 whole entry): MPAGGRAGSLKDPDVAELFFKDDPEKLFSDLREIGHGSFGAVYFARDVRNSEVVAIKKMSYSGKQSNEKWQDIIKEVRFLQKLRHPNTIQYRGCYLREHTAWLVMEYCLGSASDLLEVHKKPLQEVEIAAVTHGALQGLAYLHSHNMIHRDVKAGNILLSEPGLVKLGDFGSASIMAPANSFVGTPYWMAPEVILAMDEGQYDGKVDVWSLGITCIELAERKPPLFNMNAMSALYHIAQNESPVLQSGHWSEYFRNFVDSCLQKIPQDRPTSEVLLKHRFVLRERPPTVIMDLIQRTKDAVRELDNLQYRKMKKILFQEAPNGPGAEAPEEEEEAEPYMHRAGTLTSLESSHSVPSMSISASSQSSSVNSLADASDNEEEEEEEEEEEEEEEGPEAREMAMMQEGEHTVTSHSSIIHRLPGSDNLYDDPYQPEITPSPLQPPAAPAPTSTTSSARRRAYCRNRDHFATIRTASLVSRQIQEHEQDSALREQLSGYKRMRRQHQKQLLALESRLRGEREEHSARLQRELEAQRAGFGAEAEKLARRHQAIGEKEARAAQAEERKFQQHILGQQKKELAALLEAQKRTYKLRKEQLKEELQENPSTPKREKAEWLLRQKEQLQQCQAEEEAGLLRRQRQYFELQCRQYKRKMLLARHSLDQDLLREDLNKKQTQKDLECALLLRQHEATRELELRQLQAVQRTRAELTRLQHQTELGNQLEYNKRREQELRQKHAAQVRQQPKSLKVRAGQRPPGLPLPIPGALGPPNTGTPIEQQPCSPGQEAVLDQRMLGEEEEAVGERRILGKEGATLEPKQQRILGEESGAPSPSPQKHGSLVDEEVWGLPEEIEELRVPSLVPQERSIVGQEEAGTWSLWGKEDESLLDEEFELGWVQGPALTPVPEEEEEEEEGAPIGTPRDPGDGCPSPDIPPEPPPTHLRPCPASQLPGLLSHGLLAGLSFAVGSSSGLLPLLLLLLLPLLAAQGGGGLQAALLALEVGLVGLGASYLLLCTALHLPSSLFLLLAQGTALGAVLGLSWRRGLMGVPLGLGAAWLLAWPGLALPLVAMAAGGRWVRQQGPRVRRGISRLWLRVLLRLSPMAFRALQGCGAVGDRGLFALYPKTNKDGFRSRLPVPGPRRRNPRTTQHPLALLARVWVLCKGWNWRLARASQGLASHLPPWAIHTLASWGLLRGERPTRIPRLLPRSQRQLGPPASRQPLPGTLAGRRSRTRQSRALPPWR

RIPK3 = RIPK3 (Homo sapiens (Human), UniProt Q9Y572); conditions: RIPK3, read-out: percent inhibition
IRAK3 = IRAK3 (Homo sapiens (Human), UniProt Q9Y616); conditions: IRAK3, read-out: percent inhibition
NEK9 = NEK9 (Homo sapiens (Human), UniProt Q8TD19); conditions: NEK9, read-out: percent inhibition
GSK3A = GSK3A (Homo sapiens (Human), UniProt P49840); conditions: GSK3A, read-out: percent inhibition
SLK = SLK (Homo sapiens (Human), UniProt Q9H2G2); conditions: SLK, read-out: percent inhibition
AKT2, AKT3 = tested on: AKT2, AKT3
DGKA = DGKA (Homo sapiens (Human), UniProt P23743); conditions: DGKA, read-out: percent inhibition
ULK3 = ULK3 (Homo sapiens (Human), UniProt Q6PHR2); conditions: ULK3, read-out: percent inhibition
p70S6K = p70S6K (Homo sapiens (Human), UniProt P23443); conditions: p70S6K, read-out: percent inhibition
Chain of p70S6K (P23443 whole entry, the tested form may be a part): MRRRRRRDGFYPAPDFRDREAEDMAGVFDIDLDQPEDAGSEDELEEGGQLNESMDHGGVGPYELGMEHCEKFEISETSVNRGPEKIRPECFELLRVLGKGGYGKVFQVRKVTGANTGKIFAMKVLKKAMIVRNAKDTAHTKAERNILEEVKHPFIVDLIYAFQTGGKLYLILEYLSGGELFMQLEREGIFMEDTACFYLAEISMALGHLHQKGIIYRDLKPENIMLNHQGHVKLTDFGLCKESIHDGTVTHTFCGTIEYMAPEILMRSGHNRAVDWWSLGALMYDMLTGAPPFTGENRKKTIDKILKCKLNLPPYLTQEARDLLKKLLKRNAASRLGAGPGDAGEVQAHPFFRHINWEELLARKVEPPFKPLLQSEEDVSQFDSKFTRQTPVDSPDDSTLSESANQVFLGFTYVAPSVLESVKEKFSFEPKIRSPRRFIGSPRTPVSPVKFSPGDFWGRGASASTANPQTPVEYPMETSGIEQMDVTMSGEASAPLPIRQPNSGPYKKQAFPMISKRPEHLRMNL

JAK3 domain2 = JAK3 domain2 (Homo sapiens (Human), UniProt P52333); conditions: JAK3 domain2, read-out: percent inhibition

Cn1cc(-c2c[nH]c3ncnc(N4CCOCC4)c23)cc1C#N [Example 217, 1-methyl-4-[4-(morpholin-4-yl)-7H-pyrrolo[2,3-d]pyrimidin-5-yl]-1H-pyrrole-2-carbonitrile]
inhibition at 0.1 µM (RSK2 domain2): -4.1%
inhibition at 1 µM (RSK2 domain2): 2.8%
inhibition at 0.1 µM (LRRK2): 88.4%
inhibition at 0.1 µM (NuaK2): 1.3%
inhibition at 1 µM (NuaK2): 24.9%
inhibition at 0.1 µM (RSK2 domain1): 13.2%
inhibition at 1 µM (RSK2 domain1): 61.6%
inhibition at 0.1 µM (MSK1 domain1): -12.1%
inhibition at 1 µM (MSK1 domain1): -2.2%
inhibition at 0.1 µM (PI4KB): 9.9%
inhibition at 1 µM (PI4KB): -0.5%
inhibition at 0.1 µM (ZC2/TNIK): -10.7%
inhibition at 1 µM (ZC2/TNIK): 3.9%
inhibition at 0.1 µM (FAK): 8.1%
inhibition at 1 µM (FAK): 17.4%
inhibition at 0.1 µM (MAP2K4): 2.3%
inhibition at 1 µM (MAP2K4): 1.6%
inhibition at 0.1 µM (p70S6Kb): -2.2%
inhibition at 1 µM (p70S6Kb): -16.7%
inhibition at 0.1 µM (CHK2): 8.6%
inhibition at 1 µM (CHK2): 6.4%
inhibition at 0.1 µM (FRAP): 0.7%
inhibition at 1 µM (FRAP): 0.9%
inhibition at 0.1 µM (LATS1): -3.9%
inhibition at 1 µM (LATS1): 1.9%
inhibition at 0.1 µM (DNAPK): 31%
inhibition at 1 µM (DNAPK): 31.5%
inhibition at 0.1 µM (GCK): -5.2%
inhibition at 1 µM (GCK): 27.2%
inhibition at 0.1 µM (MAP3K3): -3.4%
inhibition at 1 µM (MAP3K3): -6.7%
inhibition at 0.1 µM (FES): 8.4%
inhibition at 1 µM (FES): 6.2%
inhibition at 0.1 µM (GCN2): -7.7%
inhibition at 1 µM (GCN2): -3.1%
inhibition at 0.1 µM (CaMK2d): 9.8%
inhibition at 1 µM (CaMK2d): 16.1%
percent inhibition (FYN, SRC, YES; 0.1 μM): 18.4%
percent inhibition (FYN, SRC, YES; 1 μM): −1.4%
inhibition at 0.1 µM (smMLCK): 1.7%
inhibition at 1 µM (smMLCK): 3.5%
inhibition at 0.1 µM (eEF2K): -12.1%
inhibition at 1 µM (eEF2K): 2.2%
inhibition at 0.1 µM (p38a): -1.1%
inhibition at 1 µM (p38a): -4.6%
inhibition at 0.1 µM (MST3): 6.7%
inhibition at 1 µM (MST3): 10.9%
inhibition at 0.1 µM (TAO2): -20.2%
inhibition at 1 µM (TAO2): -18.4%
inhibition at 0.1 µM (RIPK3): -7.3%
inhibition at 1 µM (RIPK3): -9.1%
inhibition at 0.1 µM (IRAK3): 16%
inhibition at 1 µM (IRAK3): 72.4%
inhibition at 0.1 µM (NEK9): -11%
inhibition at 1 µM (NEK9): 1.5%
inhibition at 0.1 µM (GSK3A): 0.6%
inhibition at 1 µM (GSK3A): 8.9%
inhibition at 0.1 µM (SLK): 22.5%
inhibition at 1 µM (SLK): 39.1%
percent inhibition (AKT2, AKT3; 0.1 μM): −9.7%
percent inhibition (AKT2, AKT3; 1 μM): −3.8%
inhibition at 0.1 µM (DGKA): -2.8%
inhibition at 1 µM (DGKA): 4.7%
inhibition at 0.1 µM (ULK3): -8.6%
inhibition at 1 µM (ULK3): 17.4%
inhibition at 0.1 µM (p70S6K): 3.5%
inhibition at 1 µM (p70S6K): -9.6%
inhibition at 0.1 µM (JAK3 domain2): -7.8%
inhibition at 1 µM (JAK3 domain2): 4.9%

Cn1cc(-c2c[nH]c3ncnc(N4CCOCC4)c23)cn1 [Example 1, 5-(1-Methyl-1H-pyrazol-4-yl)-4-(morpholin-4-yl)-7H-pyrrolo[2,3-d]pyrimidine]
inhibition at 0.1 µM (RSK2 domain2): 0.6%
inhibition at 1 µM (RSK2 domain2): 9.1%
inhibition at 0.1 µM (LRRK2): 69%
inhibition at 1 µM (LRRK2; 1 μM): 88.1%
inhibition at 0.1 µM (NuaK2): 3.6%
inhibition at 1 µM (NuaK2): 8.9%
inhibition at 0.1 µM (RSK2 domain1): -6.8%
inhibition at 1 µM (RSK2 domain1): 5.6%
inhibition at 0.1 µM (MSK1 domain1): -7%
inhibition at 1 µM (MSK1 domain1): -30.4%
inhibition at 0.1 µM (PI4KB): 34%
inhibition at 1 µM (PI4KB): 16.1%
inhibition at 0.1 µM (ZC2/TNIK): -10.6%
inhibition at 1 µM (ZC2/TNIK): 31.2%
inhibition at 0.1 µM (FAK): 18%
inhibition at 1 µM (FAK): 20%
inhibition at 0.1 µM (MAP2K4): 10.1%
inhibition at 1 µM (MAP2K4): 9.6%
inhibition at 0.1 µM (p70S6Kb): 15%
inhibition at 1 µM (p70S6Kb): 10.1%
inhibition at 0.1 µM (CHK2): 0.9%
inhibition at 1 µM (CHK2): 17.7%
inhibition at 0.1 µM (FRAP): -3.2%
inhibition at 1 µM (FRAP): -1.2%
inhibition at 0.1 µM (LATS1): 4.2%
inhibition at 1 µM (LATS1): -16.2%
inhibition at 0.1 µM (DNAPK): -4.4%
inhibition at 1 µM (DNAPK): -30%
inhibition at 0.1 µM (GCK): 4.4%
inhibition at 1 µM (GCK): -6.7%
inhibition at 0.1 µM (MAP3K3): -9.2%
inhibition at 1 µM (MAP3K3): 7.2%
inhibition at 0.1 µM (FES): 4.3%
inhibition at 1 µM (FES): -0.9%
inhibition at 0.1 µM (GCN2): 0.1%
inhibition at 1 µM (GCN2): -25.1%
inhibition at 0.1 µM (CaMK2d): -45.3%
inhibition at 1 µM (CaMK2d): -38.1%
percent inhibition (FYN, SRC, YES; 0.1 μM): −24.1%
percent inhibition (FYN, SRC, YES; 1 μM): −56.3%
inhibition at 0.1 µM (smMLCK): -11.5%
inhibition at 1 µM (smMLCK): -1.9%
inhibition at 0.1 µM (eEF2K): -9.6%
inhibition at 1 µM (eEF2K): -6.5%
inhibition at 0.1 µM (p38a): -23.5%
inhibition at 1 µM (p38a): -19.8%
inhibition at 0.1 µM (MST3): 10.9%
inhibition at 1 µM (MST3): 28.4%
inhibition at 0.1 µM (TAO2): -6.3%
inhibition at 1 µM (TAO2): -24.2%
inhibition at 0.1 µM (RIPK3): 5.6%
inhibition at 1 µM (RIPK3): -4.2%
inhibition at 0.1 µM (IRAK3): 30.1%
inhibition at 1 µM (IRAK3): 68.7%
inhibition at 0.1 µM (NEK9): -0.9%
inhibition at 1 µM (NEK9): 12.6%
inhibition at 0.1 µM (GSK3A): -0.2%
inhibition at 1 µM (GSK3A): -11.4%
inhibition at 0.1 µM (SLK): 22.9%
inhibition at 1 µM (SLK): 50.6%
percent inhibition (AKT2, AKT3; 0.1 μM): 1.6%
percent inhibition (AKT2, AKT3; 1 μM): 10.7%
inhibition at 0.1 µM (DGKA): -21%
inhibition at 1 µM (DGKA): -16.6%
inhibition at 0.1 µM (ULK3): -1.9%
inhibition at 1 µM (ULK3): 8%
inhibition at 0.1 µM (p70S6K): 23%
inhibition at 1 µM (p70S6K): 18.9%
inhibition at 0.1 µM (JAK3 domain2): 2.7%
inhibition at 1 µM (JAK3 domain2): -5.2%
